Source: patent publication US5462926A (Biomeasure, Inc., priority 1993, dated 1995)
Like-named read-outs stand apart in the source and are kept apart here. Where a SMILES comes first, the peptide text is derived from it. Bridges are numbered along the chain shown (N, C = ends). [ ]: non-standard residue; d: D form. 2Nal = N[C@@H](Cc1ccc2ccccc2c1)C(=O)O; d2Nal = N[C@H](Cc1ccc2ccccc2c1)C(=O)O

What was measured:
NMB receptor [1] = molecular target: T1, NMB receptor (Rattus norvegicus, UniProt P24053); test: NMB membrane receptor assay, 125I-NMB, rat olfactory bulb membranes; type: binding; parameters: Membranes were prepared from rat olfactory bulb (NMB membrane receptor assay); from tissue; host or cells: rat olfactory bulb membranes; conditions: for Ki: Cheng method, unit inferred, read-out: affinity, 125I-NMB, Rat Olfactory bulb membranes (neuromedin B receptors)
T1 sequence (P24053 1-390): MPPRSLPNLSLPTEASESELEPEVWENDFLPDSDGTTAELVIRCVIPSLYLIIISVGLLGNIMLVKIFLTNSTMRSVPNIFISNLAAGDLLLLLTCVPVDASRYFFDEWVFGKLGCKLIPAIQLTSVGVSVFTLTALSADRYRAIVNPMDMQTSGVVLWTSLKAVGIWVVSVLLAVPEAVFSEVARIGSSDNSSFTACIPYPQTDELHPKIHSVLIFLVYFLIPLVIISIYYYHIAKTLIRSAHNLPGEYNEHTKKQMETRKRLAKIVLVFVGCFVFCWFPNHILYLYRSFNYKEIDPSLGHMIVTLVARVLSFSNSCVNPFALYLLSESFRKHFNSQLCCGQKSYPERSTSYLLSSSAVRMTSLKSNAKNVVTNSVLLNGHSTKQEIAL

NMB receptor [2] = molecular target: T1, NMB receptor; test: [3H]IP in C-6 glioblastoma cells (alone or NMB-stimulated); type: cell-based; parameters: a full length NMB-preferring bombesin receptor clone generated from rat esophagus; expressed in transfected cells
Method: (§1) Total phosphoinositides in C-6 cells and in NMB-R transfected cells were determined as described previously, with minor modifications [Benya, R. V. et al. Mol. Pharmacol. 42:1058 (1992); and Wang, L-H. et al. Biochem. Jo 286:641 (1992)]. Cells were grown to confluence in 24-well plates and then loaded with 100 μCi/ml myo-[2-^3 H]inositol in Dulbecco's modified essential medium with 2% fetal bovine serum at 37° C. for 48 hrs. Cells were washed and incubated in phosphoinositide buffer (standard buffer additionally containing 10 mM LiCl, 20 mM HEPES, 2 mM CaCl2, 2% BSA, and 1.2 mM MgSO4) for 15 min and then for 60 min at 37° C. with agonists at various concentrations or with 3 nM NMB (a half-maximal effective concentration) and possible antagonists at different concentrations. Reactions were halted using ice-cold 1% HCl in methanol, and the inositol phosphates (IP) were isolated as described previously [Bologna, M. et al. Cancer 63:1714 (1989); and Endo, T. et al. J. Endocrinolo 131:313 (1991)]. Briefly, after loading of the anion exchange column, free [^3 H]glycerophosphorylinositol was removed by washing with 5 mM disodium tetraborate in 60 mM sodium formate. Total [^3 H]inositol phosphates were then eluted using 100 mM formic acid in 1.0M ammonium formate as described previously [Benya, R. V. et al. Mol. Pharmacol. 42:1058 (1992); and Wang, L-H. et al. Biochem. J. 286:641 (1992 )].
(§2) without SSoctapeptide analog added. C6 glioblastoma cells (50,000
(§3) cells/well) were incubated with myo[2^3 H]inositol for two days,
(§4) washed and then incubated with or without the indicated peptides for 60
(§5) minutes at 37° C. in phosphoinositide buffer containing 10 mM LiCl
(§6) as described in METHODS. [^3 H]IP was measured using Dowex AG1X8 anio

GRP receptor = GRP receptor (Rattus norvegicus, UniProt P52500); test: GRP membrane receptor assay, 125I-[Tyr4]Bn, AR 42J cell membranes; type: binding; parameters: endogenous in cells; host or cells: rat AR 42J pancreatic acinar tumor cell membranes; conditions: read-out: affinity, 125I-[Tyr4]Bn, AR 42J Cell Membranes (GRP receptors); Cheng method; unit inferred
[3] = tested on: endothelin-1-stimulated increases in [3H]IP; test: Endothelin-1-stimulated [3H]IP in C-6 glioblastoma cells; type: cell-based, rat
Method: as §1, §2, §3, §4, §5, §6

rat NMB receptor = molecular target: T2, rat NMB receptor (Rattus norvegicus, UniProt P24053); test: Binding of 125I-[D-Tyr0]NMB to NMB-R transfected BALB 3T3 cells; conditions: for fold decrease in NMB receptor affinity compared with cyclo SS-octa (#1): structure-function comparison from Table 1
T2 construct: a full length NMB-preferring bombesin receptor clone generated from rat esophagus; expressed in transfected cells
T2 sequence (P24053 1-390): T1 sequence (P24053 1-390)
Method: Cells were passaged every 3-4 days at confluence, using 0.1% trypsin in 1 mM EDTA. Rat glioblastoma C-6 tumor cells were maintained similarly and were passaged weekly at confluence. Both cell lines were cultured at 37° C. in a 5% CO2 atmosphere. Rat AR 42J pancreatic acinar cells were cultured in Dulbecco's modified Eagle's medium (DMEM) without antibiotics and supplemented with 10% (vol/vol) fetal calf serum. The incubation atmosphere consisted of 10% CO2 -90% humidified air at 37° C.

[4] = tested on: GRP receptors on rat pancreatic acini; test: Binding of 125I-[Tyr4]bombesin to pancreatic acini; conditions: NMB-R transfected cells vs GRP-R on rat pancreatic acini
Excerpt: Nonsaturable binding was<10% of total binding in all experiments.

[5] = NMB-R transfected BALB 3T3 cells, Ki by Cheng method, read-out: Ki 125I-NMB Binding, NMB Receptor, Transfected Cells
[6] = NMB-R transfected cells, value or range given for a group, read-out: K1, 125I-NMB binding to NMB-R transfected cells (text)

Chain of GRP receptor (P52500 whole entry): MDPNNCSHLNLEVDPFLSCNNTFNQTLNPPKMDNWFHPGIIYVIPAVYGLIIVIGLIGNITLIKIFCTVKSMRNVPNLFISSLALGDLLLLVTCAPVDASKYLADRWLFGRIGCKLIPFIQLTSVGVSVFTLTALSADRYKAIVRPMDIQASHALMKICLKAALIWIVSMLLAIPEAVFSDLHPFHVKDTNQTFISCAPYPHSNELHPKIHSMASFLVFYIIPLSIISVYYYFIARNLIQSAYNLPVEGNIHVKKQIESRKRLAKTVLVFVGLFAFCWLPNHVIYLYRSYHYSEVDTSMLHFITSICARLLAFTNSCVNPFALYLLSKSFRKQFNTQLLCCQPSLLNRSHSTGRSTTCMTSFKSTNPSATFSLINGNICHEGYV

SMILES	Ki (NMB receptor [1]) [µM]	effect on NMB-stimulated increases in [3H]IP in C-6 cells (NMB receptor [2])	[3H]IP, no peptide added (NMB receptor [2]; analog 10 μM, 60 min 37° C., control 7.2 ± 1.0) [dpm × 10^3]	[3H]IP with NMB (10 nM) (NMB receptor [2]; analog 10 μM, NMB alone 21.0 ± 1.8) [dpm × 10^3]	Ki (GRP receptor) [µM]	effect on endothelin-1-stimulated increases in [3H]IP in C-6 cells [3]	[3H]IP with ET-1 (0.1 nM) ([3]; analog 10 μM, ET-1 alone 11.0 ± 2.1) [dpm × 10^3]	Ki (rat NMB receptor; [5]) [µM]	fold decrease in NMB receptor affinity compared with cyclo SS-octa (#1) (rat NMB receptor) [fold]	fold by which cyclo SS-octa is more potent than the analog, 125I-NMB binding (rat NMB receptor; NMB-R transfected cells) [fold]	Ki (rat NMB receptor; [6]) [µM]	fold greater affinity for NMB receptors than mu opioid receptors (NMB receptor [1]; membranes, Table 4) [fold]	fold greater affinity for NMB than GRP receptors [4] [fold]	fold higher affinity for NMB receptors than somatostatin receptors (NMB receptor [1]; membranes, Table 4) [fold]
C[C@@H](O)[C@H](NC(=O)[C@@H]1CSSC[C@H](NC(=O)[C@H](N)Cc2ccc3ccccc3c2)C(=O)N[C@@H](Cc2ccc(O)cc2)C(=O)N[C@H](Cc2c[nH]c3ccccc23)C(=O)N[C@@H](CCCCN)C(=O)N[C@@H](Cc2ccc3ccccc3c2)C(=O)N1)C(N)=O [Analog #2, H2 -D-Nal-Cys-Tyr-D-Trp-Lys-Nal-Cys-Thr-NH2]	0.085 ± 0.02	inhibited	7.3 ± 1.2	14.3 ± 4.2	0.95 ± 0.07	no effect	11.2 ± 1.9	0.772 ± 0.094	4	–	–	–	–	–
CC(C)[C@@H]1NC(=O)[C@H](CCCCN)NC(=O)[C@@H](Cc2c[nH]c3ccccc23)NC(=O)[C@H](Cc2ccc(O)cc2)NC(=O)[C@@H](NC(=O)[C@H](N)Cc2ccccc2)CSSC[C@@H](C(=O)N[C@@H](Cc2ccc3ccccc3c2)C(N)=O)NC1=O [Analog #4, H2 -D-Phe-Cys-Tyr-D-Trp-Lys-Val-Cys-Nal-NH2] (H-[dF]CY[dW]KVC[2Nal]-NH2; disulfide 2-7)	0.245 ± 0.13	–	–	–	2 ± 0.15	–	–	0.818 ± 0.068	4 to 7	–	–	–	–	–
C[C@@H](O)[C@@H]1NC(=O)[C@H](CCCCN)NC(=O)[C@@H](Cc2c[nH]c3ccccc23)NC(=O)[C@H](Cc2ccc(O)cc2)NC(=O)[C@@H](NC(=O)[C@H](N)Cc2ccccc2)CSSC[C@@H](C(=O)N[C@@H](Cc2ccc3ccccc3c2)C(N)=O)NC1=O [Analog #7, H2 -D-phe-Cys-Tyr-D-Trp-Lys-Thr-Cys-Nal-NH2] (H-[dF]CY[dW]KTC[2Nal]-NH2; disulfide 2-7)	0.74 ± 0.16	–	–	–	0.75 ± 0.01	–	–	4.36 ± 0.328	–	18	3.9 to 4.4	–	–	–
CC(C)[C@@H]1NC(=O)[C@H](CCCCN)NC(=O)[C@@H](Cc2c[nH]c3ccccc23)NC(=O)[C@H](Cc2ccc(O)cc2)NC(=O)[C@@H](NC(=O)[C@H](N)Cc2ccc3ccccc3c2)CSSC[C@@H](C(=O)N[C@H](Cc2ccc3ccccc3c2)C(N)=O)NC1=O [Analog #8, H2 -D-Nal-Cys-Tyr-D-Trp-Lys-Val-Cys-D-Nal-NH2] (H-[d2Nal]CY[dW]KVC[d2Nal]-NH2; disulfide 2-7)	1.48 ± 0.5	–	–	–	4.1 ± 0.75	–	–	1.92 ± 0.201	6	9	1.4 to 2.3	–	–	–
CC(C)[C@@H]1NC(=O)[C@H](CCCCN)NC(=O)[C@@H](Cc2c[nH]c3ccccc23)NC(=O)[C@H](Cc2ccc(O)cc2)NC(=O)[C@@H](NC(=O)[C@@H](N)Cc2ccc3ccccc3c2)CSSC[C@@H](C(=O)N[C@H](Cc2ccc3ccccc3c2)C(N)=O)NC1=O [Analog #9, H2 -Nal-Cys-Tyr-D-Trp-Lys-Val-Cys-D-Nal-NH2] (H-[2Nal]CY[dW]KVC[d2Nal]-NH2; disulfide 2-7)	0.59 ± 0.17	–	–	–	1.54 ± 0.18	–	–	1.16 ± 0.229	–	–	–	–	–	–
CC(C)[C@@H]1NC(=O)[C@H](CCCCN)NC(=O)[C@@H](Cc2c[nH]c3ccccc23)NC(=O)[C@H](Cc2ccc(O)cc2)NC(=O)[C@H](NC(=O)[C@H](N)Cc2ccc3ccccc3c2)CSSC[C@@H](C(=O)N[C@@H](Cc2ccc3ccccc3c2)C(N)=O)NC1=O [Analog #10, H2 -D-Nal-D-Cys-Tyr-D-Trp-Lys-Val-Cys-Nal-NH2] (H-[d2Nal][dC]Y[dW]KVC[2Nal]-NH2; disulfide 2-7)	0.92 ± 0.35	–	–	–	1.5 ± 0.16	–	–	0.96 ± 0.109	5	–	–	–	–	–
CC(C)[C@@H]1NC(=O)[C@H](CCCCN)NC(=O)[C@@H](Cc2c[nH]c3ccccc23)NC(=O)[C@H](Cc2ccc(O)cc2)NC(=O)[C@@H](NC(=O)[C@H](N)Cc2ccc3ccccc3c2)CSSC[C@H](C(=O)N[C@@H](Cc2ccc3ccccc3c2)C(N)=O)NC1=O [Analog #11, H2 -D-Nal-Cys-Tyr-D-Trp-Lys-Val-D-Cys-Nal-NH2] (H-[d2Nal]CY[dW]KV[dC][2Nal]-NH2; disulfide 2-7)	0.23 ± 0.07	–	–	–	7.62 ± 1.26	–	–	1.08 ± 0.199	5	–	–	> 50	–	–
CC(C)[C@@H]1NC(=O)[C@H](CCCCN)NC(=O)[C@@H](Cc2c[nH]c3ccccc23)NC(=O)[C@H](Cc2ccc(O)cc2)NC(=O)[C@@H](NC(=O)[C@H](N)Cc2c[nH]c3ccccc23)CSSC[C@@H](C(=O)N[C@@H](Cc2ccc3ccccc3c2)C(N)=O)NC1=O [Analog #12, H2 -D-Trp-Cys-Tyr-D-Trp-Lys-Val-Cys-Nal-NH2] (H-[dW]CY[dW]KVC[2Nal]-NH2; disulfide 2-7)	1.18 ± 0.52	–	–	–	2.1 ± 0.15	–	–	1.41 ± 0.127	4 to 7	9	1.4 to 2.3	–	–	–
NCCCC[C@@H]1NC(=O)[C@@H](Cc2c[nH]c3ccccc23)NC(=O)[C@H](Cc2ccc(O)cc2)NC(=O)[C@@H](NC(=O)[C@H](N)Cc2ccc3ccccc3c2)CSSC[C@@H](C(=O)N[C@@H](Cc2ccc3ccccc3c2)C(N)=O)NC(=O)[C@H](Cc2ccccc2)NC1=O [Analog #13, H2 -D-Nal-Cys-Tyr-D-Trp-Lys-Phe-Cys-Nal-NH2] (H-[d2Nal]CY[dW]KFC[2Nal]-NH2; disulfide 2-7)	0.27 ± 0.09	–	–	–	2.15 ± 0.2	–	–	0.397 ± 0.072	2 to 3	2	–	–	> 100	–
CC(C)[C@@H]1NC(=O)[C@H](Cc2c[nH]cn2)NC(=O)[C@@H](Cc2c[nH]c3ccccc23)NC(=O)[C@H](Cc2ccc(O)cc2)NC(=O)[C@@H](NC(=O)[C@H](N)Cc2ccc3ccccc3c2)CSSC[C@@H](C(=O)N[C@@H](Cc2ccc3ccccc3c2)C(N)=O)NC1=O [Analog #14] (H-[d2Nal]CY[dW]HVC[2Nal]-NH2; disulfide 2-7; N-terminus assumed)	0.47 ± 0.24	–	–	–	3.1 ± 0.7	–	–	9.86 ± 1.29	50	45	–	–	–	3
